Experiments:
Format in all cases: in vivo
[1] = system: lambsquarters (Chenopodium album); test: Test B postemergence; conditions: 13 to 15 days
Summary of the method: (§1)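 Visual injury scores, 0 = no effect to 100 = complete control, assigned against controls after 13 to 15 days in the greenhouse. Compounds formulated in non-phytotoxic solvent plus surfactant and applied to soil after planting (pre) or onto foliage of 1- to 4-leaf plants (post).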

[2] = system: velvetleaf (Abutilon theophrasti); test: Test B postemergence; conditions: 13 to 15 days
Summary of the method: as §1

[3] = system: pigweed (Amaranthus retroflexus); test: Test B postemergence; conditions: 13 to 15 days
Summary of the method: as §1

[4] = system: morning glory (Ipomoea hederacea); test: Test B postemergence; conditions: 13 to 15 days
Summary of the method: as §1

[5] = system: cocklebur (Xanthium strumarium); test: Test B postemergence; conditions: 13 to 15 days
Summary of the method: as §1

[6] = system: wheat (Triticum aestivum); test: Test B postemergence; conditions: 13 to 15 days
Summary of the method: as §1

corn (Zea mays) [7] = test: Test B postemergence; conditions: 13 to 15 days
Summary of the method: as §1

[8] = system: giant foxtail (Setaria faberii); test: Test B postemergence; conditions: 13 to 15 days
Summary of the method: as §1

[9] = system: blackgrass (Alopecurus myosuroides); test: Test B postemergence; conditions: 13 to 15 days
Summary of the method: as §1

[10] = system: barnyardgrass (Echinochloa crus-galli); test: Test B postemergence; conditions: 13 to 15 days
Summary of the method: as §1

wild oat (Avena fatua) = test: Test B postemergence; conditions: 13 to 15 days
Summary of the method: as §1

[11] = system: crabgrass (Digitaria sanguinalis); test: Test B postemergence; conditions: 13 to 15 days
Summary of the method: as §1

[12] = system: Surinam grass (Brachiaria decumbens); test: Test B postemergence; conditions: 13 to 15 days
Summary of the method: as §1

[13] = system: duck salad (Heteranthera limosa); test: Test B flooded paddy test; conditions: Rate 1000 g/ha, scale of 0 to 100 where 0 is no effect and 100 is complete control, visually evaluated after 13 to 15 days
Protocol: (§2) At the same time, plants selected from these crop and weed species and also blackgrass (Alopecurus myosuroides), wheat (Triticum aestivum) and wild oat (Avena fatua) were treated with postemergence applications of test chemicals formulated in the same manner. Plants ranged in height from 2 to 18 cm (1- to 4-leaf stage) for postemergence treatments. Plant species in the flooded paddy test consisted of rice (Oryza saliva), smallflower flatsedge (Cyperus difformis), duck salad (Heteranthera limosa) and barnyardgrass (Echinochloa crus-galli) grown to the 2-leaf stage for testing. Treated plants and controls were maintained in a greenhouse for 13 to 15 days, after which time all species were compared to controls and visually evaluated. Plant response ratings, summarized in Table B, are based on a scale of 0 to 100 where 0 is no effect and 100 is complete control. A dash (-) response means no test result.

[14] = system: smallflower flatsedge (Cyperus difformis); test: Test B flooded paddy test; conditions: Rate 1000 g/ha, scale of 0 to 100 where 0 is no effect and 100 is complete control, visually evaluated after 13 to 15 days
Protocol: as §2

rice (Oryza saliva) [15] = test: Test B flooded paddy test; conditions: Rate 1000 g/ha, scale of 0 to 100 where 0 is no effect and 100 is complete control, visually evaluated after 13 to 15 days
Protocol: as §2

[16] = system: barnyardgrass (Echinochloa crus-galli); test: Test B flooded paddy test; conditions: Rate 1000 g/ha, scale of 0 to 100 where 0 is no effect and 100 is complete control, visually evaluated after 13 to 15 days
Protocol: as §2

[17] = system: lambsquarters (Chenopodium album); test: Test B preemergence
Summary of the method: as §1

[18] = system: velvetleaf (Abutilon theophrasti); test: Test B preemergence
Summary of the method: as §1

[19] = system: pigweed (Amaranthus retroflexus); test: Test B preemergence
Summary of the method: as §1

[20] = system: morning glory (Ipomoea hederacea); test: Test B preemergence
Summary of the method: as §1

rice (Oryza saliva) [21] = test: Test B preemergence
Summary of the method: as §1

[22] = system: cocklebur (Xanthium strumarium); test: Test B preemergence
Summary of the method: as §1

corn (Zea mays) [23] = test: Test B preemergence
Summary of the method: as §1

[24] = system: giant foxtail (Setaria faberii); test: Test B preemergence
Summary of the method: as §1

[25] = system: barnyardgrass (Echinochloa crus-galli); test: Test B preemergence
Summary of the method: as §1

[26] = system: crabgrass (Digitaria sanguinalis); test: Test B preemergence
Summary of the method: as §1

[27] = system: Surinam grass (Brachiaria decumbens); test: Test B preemergence
Summary of the method: as §1

[28] = Rate 125 g/ha, scale 0 (no effect) to 100 (complete control)
[29] = Rate 500 g/ha, scale 0 to 100, 0 is no effect, 100 is complete control
[30] = Preemergence, Rate 500 g/ha, scale 0 to 100, 0 no effect, 100 complete control
[31] = preemergence, Rate 125 g/ha, scale 0 to 100, 0 no effect, 100 complete control
[32] = preemergence, Rate 125 g/ha, scale of 0 to 100 where 0 is no effect and 100 is complete control, 13 to 15 days

## Cc1ccc(N2CCC(n3ccc(C(C)(C)C)n3)C2=O)cc1Br (stereo not drawn) [Compound 35]
[1]; [28]
  Plant response rating, Lambsquarters: 0
[1]; [29]
  Plant response rating, Lambsquarters: 80
[2]; [28]
  Plant response rating, Velvetleaf: 0
[2]; [29]
  Plant response rating, Velvetleaf: 0
[3]; [28]
  Plant response rating, Pigweed: 90
[3]; [29]
  Plant response rating, Pigweed: 90
[4]; [28]
  Plant response rating, Morningglory: 0
[4]; [29]
  Plant response rating, Morningglory: 20
[5]; [28]
  Plant response rating, Cocklebur: 40
[5]; [29]
  Plant response rating, Cocklebur: 40
[6]; [28]
  Plant response rating, Wheat: 0
[6]; [29]
  Plant response rating, Wheat: 0
Corn (Zea mays) [7]; [28]
  Plant response rating, Corn: 0
Corn (Zea mays) [7]; [29]
  Plant response rating, Corn: 0
[8]; [28]
  Plant response rating, Foxtail, Giant: 0
[8]; [29]
  Plant response rating, Foxtail, Giant: 0
[9]; [28]
  Plant response rating, Blackgrass: 0
[9]; [29]
  Plant response rating, Blackgrass: 0
[10]; [28]
  Plant response rating, Barnyardgrass: 0
[10]; [29]
  Plant response rating, Barnyardgrass: 40
Wild oat (Avena fatua); [28]
  Plant response rating, Wild Oat: 0
Wild oat (Avena fatua); [29]
  Plant response rating, Wild Oat: 0
[11]; [28]
  Plant response rating, Crabgrass: 0
[11]; [29]
  Plant response rating, Crabgrass: 0
[12]; [28]
  Plant response rating, Surinam grass: 0
[12]; [29]
  Plant response rating, Surinam grass: 0
[13]
  Plant response rating, Ducksalad: 0
[14]
  Plant response rating, Flatsedge: 100
Rice (Oryza saliva) [15]
  Plant response rating, Rice: 0
[16]
  Plant response rating, Barnyardgrass: 60
[17]; [30]
  Plant response rating, Lambsquarters: 100
[17]; [31]
  Plant response rating, Lambsquarters: 0
[18]; [30]
  Plant response rating, Velvetleaf: 0
[19]; [30]
  Plant response rating, Pigweed: 100
[20]; [30]
  Plant response rating, Morningglory: 0
Rice (Oryza saliva) [21]; [30]
  Plant response rating, Rice: 0
[22]; [30]
  Plant response rating, Cocklebur: 0
[22]; [31]
  Plant response rating, Cocklebur: 0
Corn (Zea mays) [23]; [30]
  Plant response rating, Corn: 0
Corn (Zea mays) [23]; [31]
  Plant response rating, Corn: 0
[24]; [30]
  Plant response rating, Foxtail, Giant: 0
[24]; [31]
  Plant response rating, Foxtail, Giant: 0
[25]; [30]
  Plant response rating, Barnyardgrass: 60
[25]; [31]
  Plant response rating, Barnyardgrass: 0
[26]; [30]
  Plant response rating, Crabgrass: 100
[26]; [31]
  Plant response rating, Crabgrass: 0
[27]; [30]
  Plant response rating, Surinam grass: 0
[27]; [31]
  Plant response rating, Surinam grass: 0

## Cc1ccc(N2CCC(n3ccc(C(C)(C)C)n3)C2=O)cc1Cl (stereo not drawn) [Compound 41]
[1]; [28]
  Plant response rating, Lambsquarters: 0
[1]; [29]
  Plant response rating, Lambsquarters: 60
[2]; [28]
  Plant response rating, Velvetleaf: 0
[2]; [29]
  Plant response rating, Velvetleaf: 0
[3]; [28]
  Plant response rating, Pigweed: 0
[3]; [29]
  Plant response rating, Pigweed: 80
[4]; [28]
  Plant response rating, Morningglory: 0
[4]; [29]
  Plant response rating, Morningglory: 20
[5]; [28]
  Plant response rating, Cocklebur: 0
[5]; [29]
  Plant response rating, Cocklebur: 0
[6]; [28]
  Plant response rating, Wheat: 0
[6]; [29]
  Plant response rating, Wheat: 0
Corn (Zea mays) [7]; [29]
  Plant response rating, Corn: 0
[8]; [28]
  Plant response rating, Foxtail, Giant: 0
[8]; [29]
  Plant response rating, Foxtail, Giant: 0
[9]; [28]
  Plant response rating, Blackgrass: 0
[9]; [29]
  Plant response rating, Blackgrass: 0
[10]; [28]
  Plant response rating, Barnyardgrass: 0
[10]; [29]
  Plant response rating, Barnyardgrass: 70
Wild oat (Avena fatua); [28]
  Plant response rating, Wild Oat: 0
Wild oat (Avena fatua); [29]
  Plant response rating, Wild Oat: 0
[11]; [28]
  Plant response rating, Crabgrass: 0
[11]; [29]
  Plant response rating, Crabgrass: 40
[12]; [28]
  Plant response rating, Surinam grass: 0
[12]; [29]
  Plant response rating, Surinam grass: 0
[13]
  Plant response rating, Ducksalad: 70
[14]
  Plant response rating, Flatsedge: 100
Rice (Oryza saliva) [15]
  Plant response rating, Rice: 40
[16]
  Plant response rating, Barnyardgrass: 70
[17]; [30]
  Plant response rating, Lambsquarters: 100
[17]; [31]
  Plant response rating, Lambsquarters: 100
[18]; [30]
  Plant response rating, Velvetleaf: 0
[19]; [30]
  Plant response rating, Pigweed: 100
[20]; [30]
  Plant response rating, Morningglory: 0
Rice (Oryza saliva) [21]; [30]
  Plant response rating, Rice: 0
[22]; [30]
  Plant response rating, Cocklebur: 0
[22]; [31]
  Plant response rating, Cocklebur: 0
Corn (Zea mays) [23]; [30]
  Plant response rating, Corn: 0
Corn (Zea mays) [23]; [31]
  Plant response rating, Corn: 0
[24]; [30]
  Plant response rating, Foxtail, Giant: 60
[24]; [31]
  Plant response rating, Foxtail, Giant: 0
[25]; [30]
  Plant response rating, Barnyardgrass: 100
[25]; [31]
  Plant response rating, Barnyardgrass: 40
[26]; [30]
  Plant response rating, Crabgrass: 0
[26]; [31]
  Plant response rating, Crabgrass: 0
[27]; [30]
  Plant response rating, Surinam grass: 0
[27]; [31]
  Plant response rating, Surinam grass: 0

## Cc1ccc(N2CCC(n3ccc(C(C)(C)C)n3)C2=O)cc1C(F)(F)F (stereo not drawn) [Compound 47]
[1]; [28]
  Plant response rating, Lambsquarters: 70
[1]; [29]
  Plant response rating, Lambsquarters: 90
[2]; [28]
  Plant response rating, Velvetleaf: 0
[2]; [29]
  Plant response rating, Velvetleaf: 0
[3]; [28]
  Plant response rating, Pigweed: 50
[3]; [29]
  Plant response rating, Pigweed: 50
[4]; [28]
  Plant response rating, Morningglory: 0
[4]; [29]
  Plant response rating, Morningglory: 0
[5]; [28]
  Plant response rating, Cocklebur: 0
[5]; [29]
  Plant response rating, Cocklebur: 0
[6]; [28]
  Plant response rating, Wheat: 0
[6]; [29]
  Plant response rating, Wheat: 0
Corn (Zea mays) [7]; [28]
  Plant response rating, Corn: 0
Corn (Zea mays) [7]; [29]
  Plant response rating, Corn: 0
[8]; [28]
  Plant response rating, Foxtail, Giant: 0
[8]; [29]
  Plant response rating, Foxtail, Giant: 0
[9]; [28]
  Plant response rating, Blackgrass: 0
[9]; [29]
  Plant response rating, Blackgrass: 0
[10]; [28]
  Plant response rating, Barnyardgrass: 0
[10]; [29]
  Plant response rating, Barnyardgrass: 0
Wild oat (Avena fatua); [28]
  Plant response rating, Wild Oat: 0
Wild oat (Avena fatua); [29]
  Plant response rating, Wild Oat: 0
[11]; [28]
  Plant response rating, Crabgrass: 0
[11]; [29]
  Plant response rating, Crabgrass: 0
[12]; [28]
  Plant response rating, Surinam grass: 0
[12]; [29]
  Plant response rating, Surinam grass: 0
[13]
  Plant response rating, Ducksalad: 20
[14]
  Plant response rating, Flatsedge: 100
Rice (Oryza saliva) [15]
  Plant response rating, Rice: 70
[16]
  Plant response rating, Barnyardgrass: 70
[17]; [30]
  Plant response rating, Lambsquarters: 100
[17]; [32]
  Plant response rating, Lambsquarters: 0
[18]; [30]
  Plant response rating, Velvetleaf: 0
[18]; [32]
  Plant response rating, Velvetleaf: 0
[19]; [30]
  Plant response rating, Pigweed: 100
[19]; [32]
  Plant response rating, Pigweed: 100
[20]; [30]
  Plant response rating, Morningglory: 0
[20]; [32]
  Plant response rating, Morningglory: 0
Rice (Oryza saliva) [21]; [30]
  Plant response rating, Rice: 20
Rice (Oryza saliva) [21]; [32]
  Plant response rating, Rice: 0
[22]; [30]
  Plant response rating, Cocklebur: 0
[22]; [32]
  Plant response rating, Cocklebur: 0
Corn (Zea mays) [23]; [30]
  Plant response rating, Corn: 0
Corn (Zea mays) [23]; [32]
  Plant response rating, Corn: 0
[24]; [30]
  Plant response rating, Foxtail, Giant: 0
[24]; [32]
  Plant response rating, Foxtail, Giant: 0
[25]; [30]
  Plant response rating, Barnyardgrass: 0
[25]; [32]
  Plant response rating, Barnyardgrass: 0
[26]; [30]
  Plant response rating, Crabgrass: 0
[26]; [32]
  Plant response rating, Crabgrass: 0
[27]; [30]
  Plant response rating, Surinam grass: 0
[27]; [32]
  Plant response rating, Surinam grass: 0
